How the values were obtained:
Format in all cases: cell-based
[1] = test system: HSC-2 human oral cancer cell line; assay: MTT cell proliferation assay, HSC-2; conditions: for % of DMSO control at 100 μM, HSC-2, 24 h: 24 h incubation; for % of DMSO control at 100 μM, HSC-2, 48 h: 48 h incubation; for % of DMSO control at 100 μM, HSC-2, 72 h: 72 h incubation
Protocol: (§1) UROTsa immortalized human urothelium cell line, HSC-2 human oral cancer cell line, T24 human bladder cancer cell line and A549 human lung cancer line were purchased from the American Type Culture Collection (ATCC, Rockville, MD, USA), and cultured in DMEM/F12 medium, supplemented with 10% fetal bovine serum and 50 μg/ml gentamicin, at 37° C. in a humidified 5% CO2 incubator. For each compound tested, powder was dissolved in DMSO at 100 mM concentration. This stock solution was then diluted in culture medium to final concentration values ranging between 1 μM and 100 μM. For each sample, DMSO was kept constant at 0.1% final concentration. The day before starting treatment, cells were seeded in 96-well plates, at a density of 2000 cells/well. Cells were allowed to attach overnight and then incubated with compounds at different final concentrations, or with DMSO only, for 24, 48 and 72 hours. All experiments were performed in triplicate.
(§2) Cell proliferation was determined using a colorimetric assay with 3-(4,5-dimethylthiazol-2-yl)-2,5-diphenyl tetrazolium bromide (MTT). The MTT assay measures the conversion of MTT to insoluble formazan by dehydrogenase enzymes of the intact mitochondria of living cells. Cell proliferation was evaluated by measuring the conversion of the tetrazolium salt MTT to formazan crystals upon treatment with compounds or DMSO only for 24, 48 and 72 hours. Briefly, cells were incubated for 2 hours at 37° C. with 100 μl fresh culture medium containing 5 μl of MTT reagent (5 mg/ml in PBS). The medium was removed and 200 μl isopropanol were added. The amount of formazan crystals formed correlated directly with the number of viable cells. The reaction product was quantified by measuring the absorbance at 540 nm using an ELISA plate reader. Experiments were repeated three times. Results were expressed as percentage of the control (control equals 100% and corresponds to the absorbance value of each sample at time zero) and presented as mean values±standard deviation of three independent experiments performed in triplicate.
(§3) Data were analysed using GraphPad Prism software for Windows (GraphPad Software, San Diego, CA). Significant differences between groups were determined using the one-way analysis of variance (ANOVA). A p value <0.05 was considered as statistically significant.

[2] = test system: T24 human bladder cancer cell line; assay: MTT cell proliferation assay, T24; conditions: for % of DMSO control at 100 μM, T24, 24 h: 24 h incubation; for % of DMSO control at 100 μM, T24, 48 h: 48 h incubation; for % of DMSO control at 100 μM, T24, 72 h: 72 h incubation
Protocol: as §1, §2, §3

[3] = test system: A549 human lung cancer line; assay: MTT cell proliferation assay, A549; conditions: for % of DMSO control at 100 μM, A549, 24 h: 24 h incubation; for % of DMSO control at 100 μM, A549, 48 h: 48 h incubation; for % of DMSO control at 100 μM, A549, 72 h: 72 h incubation
Protocol: as §1, §2, §3

Row | SMILES | % of DMSO control at 100 μM, HSC-2, 24 h [1] | % of DMSO control at 100 μM, HSC-2, 48 h [1] | % of DMSO control at 100 μM, HSC-2, 72 h [1] | % of DMSO control at 100 μM, T24, 24 h [2] | % of DMSO control at 100 μM, T24, 48 h [2] | % of DMSO control at 100 μM, T24, 72 h [2] | % of DMSO control at 100 μM, A549, 24 h [3] | % of DMSO control at 100 μM, A549, 48 h [3] | % of DMSO control at 100 μM, A549, 72 h [3]
1 | N#Cc1ccc(/C=C/CN(CC[C@H](N)C(=O)O)C[C@H]2O[C@@H](n3cnc4c(N)ncnc43)[C@H](O)[C@@H]2O)cc1 [GYZ-319] | 100 % of DMSO control | 53 % of DMSO control | 49 % of DMSO control | 100 % of DMSO control | 79 % of DMSO control | 86 % of DMSO control | 100 % of DMSO control | 74 % of DMSO control | 66 % of DMSO control
2 | COC(=O)[C@@H](N)CCN(C/C=C/c1ccc(C#N)cc1)C[C@H]1O[C@@H](n2cnc3c(N)ncnc32)[C@H](O)[C@@H]1O [GYZ-494] | 100 % of DMSO control | 100 % of DMSO control | 87 % of DMSO control | 100 % of DMSO control | 76 % of DMSO control | 100 % of DMSO control | 100 % of DMSO control | 100 % of DMSO control | 88 % of DMSO control
3 | CCOC(=O)[C@@H](N)CCN(C/C=C/c1ccc(C#N)cc1)C[C@H]1O[C@@H](n2cnc3c(N)ncnc32)[C@H](O)[C@@H]1O [GYZ-552] | 100 % of DMSO control | 100 % of DMSO control | 73 % of DMSO control | 100 % of DMSO control | 100 % of DMSO control | 100 % of DMSO control | 100 % of DMSO control | 100 % of DMSO control | 100 % of DMSO control
4 | CC(C)OC(=O)[C@@H](N)CCN(C/C=C/c1ccc(C#N)cc1)C[C@H]1O[C@@H](n2cnc3c(N)ncnc32)[C@H](O)[C@@H]1O [GYZ-553] | 100 % of DMSO control | 75 % of DMSO control | 56 % of DMSO control | 100 % of DMSO control | 71 % of DMSO control | 100 % of DMSO control | 100 % of DMSO control | 100 % of DMSO control | 100 % of DMSO control
5 | COC(=O)[C@H](CCN(C/C=C/c1ccc(C#N)cc1)C[C@H]1O[C@@H](n2cnc3c(N)ncnc32)[C@H](O)[C@@H]1O)NC(=O)CC(C)(C)c1c(C)cc(C)cc1OC(C)=O [GYZ-573] | 83 % of DMSO control | 69 % of DMSO control | 39 % of DMSO control | 100 % of DMSO control | 79 % of DMSO control | 62 % of DMSO control | 100 % of DMSO control | 100 % of DMSO control | 100 % of DMSO control
6 | CCCOC(=O)[C@@H](N)CCN(C/C=C/c1ccc(C#N)cc1)C[C@H]1O[C@@H](n2cnc3c(N)ncnc32)[C@H](O)[C@@H]1O [GYZ-579] | 100 % of DMSO control | 57 % of DMSO control | 63 % of DMSO control | 82 % of DMSO control | 71 % of DMSO control | 100 % of DMSO control | 100 % of DMSO control | 100 % of DMSO control | 100 % of DMSO control
7 | CCCOC(=O)[C@H](CCN(C/C=C/c1ccc(C#N)cc1)C[C@H]1O[C@@H](n2cnc3c(N)ncnc32)[C@H](O)[C@@H]1O)NC(=O)CC(C)(C)c1c(C)cc(C)cc1OC(C)=O [GYZ-580] | 59 % of DMSO control | 41 % of DMSO control | 16 % of DMSO control | 72 % of DMSO control | 36 % of DMSO control | 15 % of DMSO control | 83 % of DMSO control | 45 % of DMSO control | 25 % of DMSO control
8 | CC(=O)Oc1cc(C)cc(C)c1C(C)(C)CC(=O)N[C@@H](CCN(C/C=C/c1ccc(C#N)cc1)C[C@H]1O[C@@H](n2cnc3c(N)ncnc32)[C@H](O)[C@@H]1O)C(=O)O [MH128] | 100 % of DMSO control | 100 % of DMSO control | 65 % of DMSO control | 100 % of DMSO control | 83 % of DMSO control | 84 % of DMSO control | 100 % of DMSO control | 100 % of DMSO control | 100 % of DMSO control
9 | CCOC(=O)[C@H](CCN(C/C=C/c1ccc(C#N)cc1)C[C@H]1O[C@@H](n2cnc3c(N)ncnc32)[C@H](O)[C@@H]1O)NC(=O)CC(C)(C)c1c(C)cc(C)cc1OC(C)=O [NB60] | 79 % of DMSO control | 44 % of DMSO control | 26 % of DMSO control | 100 % of DMSO control | 50 % of DMSO control | 29 % of DMSO control | 100 % of DMSO control | 100 % of DMSO control | 76 % of DMSO control

— patent US20240247024A1, “INHIBITORS OF NICOTINAMIDE N-METHYL TRANSFERASE (NNMT)” (UNIVERSITEIT LEIDEN, priority 2021, published 2024)
